Source: US11964984B2, “TXNIP-TRX complex inhibitors and methods of using the same” (CITY OF HOPE, priority 2020, dated 2024)

Experiments:
THP1 cells = assay: RNA-seq transcriptome profiling of THP1 cells in high glucose (differential expression, GO, GSEA); format: cell-based, human; settings: for biological processes (BPs) suppressed (GSEA): HG treated THP1 cells; for number of downregulated genes, compound+HG versus HG / number of upregulated genes, compound+HG versus HG / rank of TXNIP gene among differentially expressed genes / number of HG-induced genes inhibited by the compound (overlap): THP1, 25 mM glucose; for number of downregulated genes, compound+HG versus HG / number of upregulated genes, compound+HG versus HG / rank of TXNIP gene among differentially expressed genes / functions of downregulated genes (Gene ontology analysis): 5 uM; for number of downregulated genes, compound+HG versus HG / number of upregulated genes, compound+HG versus HG / functions of downregulated genes (Gene ontology analysis): fold change ≥2 and FDR<5%; for rank of TXNIP gene among differentially expressed genes: p-value close to 0; for number of HG-induced genes inhibited by the compound (overlap): 72 hours, 2.5 um compound, FC >2 or <0.5, FDR-adjusted p <0.05; for number of HG upregulated genes downregulated by both C30 and C38: THP1, FC≥1.5 & FDR<5%; for functions of downregulated genes (Gene ontology analysis) / normalized enrichment score (NES), HG-downregulated genes (GSEA) / normalized enrichment score (NES), HG-upregulated genes (GSEA): THP1 in HG; for normalized enrichment score (NES), HG-downregulated genes (GSEA) / normalized enrichment score (NES), HG-upregulated genes (GSEA): with versus without compound
Protocol: FIGS. 10A-10C. C30 and C38 inhibit the same subset of genes induced by high glucose (HG). THP1 cell were cultured in RPMI 1640 medium under 25 mM glucose for 72 hours with […] C30 or C38. Total RNA was prepared and sent for RNA-seq. Differential expression analysis was conducted as described in the Methods. […] FIG. 10A: Overlap between HG-induce genes and C30-inhibited genes in THP1 cells. FIG. 10B: Overlap between HG-induce genes and C38-inhibited genes in THP1 cells. FIG. 10C: Overlap between common genes from FIG. 10A (60 genes) and common genes from FIG. 10B (64 genes).
FIGS. 11A-11B. FIG. 11A: Heatmap of 60 high glucose-responsive and C30/C38-inhibited genes. Differential expression was calculated using these counts with edgeR (5, 6) version 3.0. After correcting for differences in library sizes, a fold change of >1.5 and a p-value of <0.05 were applied to select expressed genes. Overlapped genes were used for generating heatmap using Java TreeView. NG: THP1 under 5 mM glucose; HG: THP1, 25 mM glucose; C30: THP1, 25 mM glucose, 5 uM C30; C38: THP1, 25 mM glucose, 5 uM C38. All are replicates. From top to bottom: HSD11B1, EGR1, NFE2, CCL2, TIFAB, SH2D2A, UHRF1, CD52, TIMP3, TNF, S100P, PAQR4, LY6E, VPS9D-AS, RNASE3, MIR4258, GAS6, LIMD2, MBOAT7, CFD, PKMYT1, CHAC1, MFNG, DEFB1, ICAM2, NT5DC2, GPR35, HINT2, SEPT5-GP1BB, NRSN2, CDH24, SLC37A2, ADAT3, LST1, SPNS3, LTB, H2AFX, FUOM, FAM163A, BATF3, TMEM160, CITED4, MIR3661, TNFSF14, SLC6A9, TONSL, AVEN, SUSD3, TSPO, DDIT4, CKB, SLC22A31, HAAO, MF5SD3, SLC38A5, SIGMAR1, RGMA, DNPH1, ADGRE5, C20orf24, GATA2, RAB37, GDPD5, GAREM2, PIGQ, IMPA2, CRYBB2P1, UCP2, RELB, FOXL2, STC2, HOXA11-AS, MIR1282, RTN2, ZNF511, STARD10, NRM, NF2, ITGB7, POMGNT, KLF10, KLF2, NECAB2, C6orf223, IGFBP4, ACP2, TMEM161A, RHBDD2, YDJC, G0S2, FAM20C, TKTL1, PDIA3P1, HCST, FBXL15, LINC00116, FLNA, TXNIP, MIR3687-1, ARRDC4.
FIG. 21. Volcano plots on gene expression changes induced by TXNIP inhibitors (C30 or C38) under high glucose (HG) conditions in THP1 cells. Gene expression in THP cells grown in HG were treated with and without C30 or C38 and profiled by RNAseq. Expression of RefSeq genes with rpkm≥5 in at least one sample were TMM-normalized and compared in cells treated with HG plus C30 or C38 (C30+HG or C38+HG) versus the cells treated with HG alone using edgeR (v 3.28.1). […] Each dot represents one gene with fold change (in log 2 format) in C30/C38+HG sample vs. HG as x-axis and significance level (in −log 10 format) as y-axis.
FIG. 22. Enriched BPs on DEGs induced by TXNIP inhibitors. […] The enriched BPs were identified at FDR<5% using enrichGO R package and up to 15 BPs with the most significant enrichment are shown as horizontal bar plots. In each bar, number of DEGs in the BP is presented by y-axis and the enrichment significance is represented by different grey-scale colors indicated in the color bar.
FIG. 24. Impact of C30/C38 treatment on HG-regulated genes by GSEA analysis. […] In the analysis for each treatment (C30 or C38), all the expressed genes were ranked based on the signed significance levels, −log10 Pvalue with signs determined by FC (positive if FC>1 and negative if FC<1), on each gene's expression difference between samples with and without treatment. The overall gene expression difference in THP1 cells (in HG condition) treated with or without C30/C38 on these two genesets were analyzed using pre-ranked GSEA analysis.
FIG. 25. […] All the expressed genes were ranked based on the signed significance levels of each gene's expression difference (C30+HG vs. HG). […] In the plot shown, each bubble represents one geneset. […] Genesets related to BPs are represented by solid black bubbles and related to HG regulated genesets are shown as hollow black bubbles.
FIG. 26. […] All the expressed genes were ranked based on the signed significance levels of each gene's expression difference (C38+HG vs. HG). […] In the plot, each bubble represents one geneset. […]

TXNIP mRNA = TXNIP mRNA in human islets under high glucose plus cytokines; format: cell-based; settings: 25 mM glucose + TNFα, IL1β, IFNγ, 40 hours
Protocol: FIGS. 18A-18B. C30 and C38 compounds protect cells from apoptosis in human islets. 100 IEQ human islets (Hu 1178) were cultured in PIM(R)© containing NG (5.8 mM glucose) or HG (25 mM glucose), and TNFα (20 ng/ml), IL1β (20 ng/ml), IFNγ (200 ng/ml) for 40 hours with or without lead compounds. Total RNA was prepared and RT PCR performed. FIG. 18A: BCL2/BAX ratios are the mean±SEM from triplicates. Statistical analysis was performed for each column vs. HG, 3 cytokines using one-way ANOVA: *p<0.002. FIG. 18B: TXNIP relative mRNA levels. Data shown are the mean±SEM from triplicates. Statistical analysis was performed for each column vs. HG, 3 cytokines using one-way ANOVA: **p<0.0001.
We mimicked T1D conditions in vitro (25 mM glucose, […], […] and […]) to induced apoptosis in human islets (obtained from the Southern California Islet Cell Resources Center at City of Hope). This high glucose/cytokine cocktail was able to induce apoptosis in cultured human islets as indicated by a decrease in the BCL2/BAX ratio (FIG. 18A).

| Compound | biological processes (BPs) suppressed (GSEA) (THP1 cells) | number of downregulated genes, compound+HG versus HG (THP1 cells) [genes] | number of upregulated genes, compound+HG versus HG (THP1 cells) [genes] | rank of TXNIP gene among differentially expressed genes (THP1 cells) | number of HG-induced genes inhibited by the compound (overlap) (THP1 cells) [genes] | number of HG upregulated genes downregulated by both C30 and C38 (THP1 cells) [genes] | functions of downregulated genes (Gene ontology analysis) (THP1 cells) | normalized enrichment score (NES), HG-downregulated genes (GSEA) (THP1 cells) | normalized enrichment score (NES), HG-upregulated genes (GSEA) (THP1 cells) | TXNIP expression increased during apoptosis (TXNIP mRNA) |
| --- | --- | --- | --- | --- | --- | --- | --- | --- | --- | --- |
| COc1cc(N2CC[C@@H](c3ccc4ccccc4c3)[C@H](O)C2)nc(N)n1 [Compound C30] | strongly suppresses BPs related to DNA replication, cell cycle, lipopolysaccharide metabolic process | 571 | 746 | most-significantly downregulated gene | 60 | 23 | substantially inhibit functions related to immune/inflammation response | 1.63 | −1.84 | significantly ameliorated |
| c1ccc(CCNc2ncnc3c2oc2ccccc23)cc1 [Compound C38] | suppressing BPs involved in metabolic process, DNA replication, immune response, splicing | 537 | 741 | most-significantly downregulated gene | 64 | 23 | substantially inhibit functions related to immune/inflammation response | 1.83 | −1.98 | significantly ameliorated |
